Results from US11046679B2, “Indoleamine 2,3-dioxygenase inhibitor and application” (Nanjing TransThera Biosciences Co. Ltd., priority 2017, dated 2021).
Read-outs that look alike come from different tables or passages of the source. Values belong to the molecule of their own block, whether it stands above or below them.

Tests used:
[1] = test system: Hela cell; experiment: Hela cell evaluation method (cytological test, rhIFN-γ stimulated); format: cell-based; details: Hela cells with 50 ng/mL rhIFN-γ, incubated 48 hours, OD at 480 nm
Protocol: Hela Cell Evaluation Method
(§1) Test Sample: Compounds Prepared in the Corresponding Examples of the Present Invention
Helacell strain (Purchased from ATCC, Cat. No. CCL-2, 4965442)
Recombinant Human IFN-γ (rhIFN-γ, Purchased from Peprotech, Cat. No. 300-02)
Cell plating: Hela cell suspension was prepared from fresh MEM cell culture medium, added to a 96-well cell culture plate at 5000 cells/well, and cultured at 5% carbon dioxide at 37° C. overnight.
Preparation of compound: The compound was formulated into 2 mM in DMSO, and the compound was diluted 5-fold in DMSO to obtain a compound dilution mother solution (200×) of 6 to 9 concentration gradients, and a 10× dilution solution was prepared in proportion with cell culture medium or liquid.
Dosing incubation: After the cells were plated overnight, 10 μL of the corresponding compound dilution mother solution (10×) and 10 μL of 500 ng/mL rhIFN-γ were added to each well, and the final volume of each well was 100 μL. The negative control wells contained 100 μL of 0.5% DMSO cell culture medium and Hela cells. 50 ng/mL of rhIFN-γ were filled into negative control wells, which are used as positive control. Background control wells contained 100 μL of cell culture medium. Incubation was performed for 48 hours in a 37° C. incubator and cell morphology was observed under an inverted microscope.
Detection: 80 μL of the supernatant was added to a Corning 3894 plate, and 10 μL of 6.1 N trichloroacetic acid was added to each well. The plate was shaken for 2 minutes, placed in a 50° C. incubator to react for 30 minutes, centrifuged at 2500 rpm for 10 minutes. 70 μL of the supernatant was transferred to a Corning 3635 UV plate, added with 70 μL of the reaction solution and the mixture was shaken for 2 minutes to make the reaction mixture uniform. The OD value at 480 nm was measured using EnSpire (PE).

[2] = target: T1, IDO1 (Homo sapiens, UniProt P14902); experiment: IDO1 enzymology evaluation method; format: biochemical; details: IDO-1 enzyme, dynamic OD at 321 nm, IC50 fitted with GraphPad Prism
T1 construct: purchased CP lot number: 20160706
Protocol: IDO1 Enzymology Evaluation Method
as §1
Preparation of compound: The compound was formulated into 1 mM compound mother liquor in DMSO, and the compound was diluted 3-fold in DMSO to obtain a compound concentration dilution mother solution (100×) of 9 concentration gradients.
Dosing inhibition: 2 μL of 100× compound dilution mother solution was added to a 96-well plate, added with 100 μL of enzyme solution (IDO-1), and incubated for 10 min at room temperature. 100% DMSO was used as a negative control and NLG-919 was used as a positive control. Incubation was performed with 100 μL of substrate mixture (L-tryptophan, ascorbate, methylene blue, and catalase).
Detection: Dynamic OD data at 321 nm was detected using Spectramax.
Calculation: The inhibition rate was calculated according to the following formula.
The curve slope was fitted using the Spectramax program, and IC50 was fitted using GraphPad Prism 5.0.

[3] = Rat PK evaluation of the compounds; format: in vivo; details: SD rats; for Cl_obs iv / Vz_obs iv / tz1/2 iv / tZ1/2 PO / bioavailability / AUC(0-inf): n = 3; for tZ1/2 PO: PO (intragastric) 5 mg/kg; for bioavailability / AUC(0-inf) / Tmax: Sprague-Dawley, rat, plasma; for Tmax: n = 3, median
Protocol: Example 3: Rat PK Evaluation of the Compounds
(§2) Animal administration and sample collection: intragastric administration: Compounds 2 and 13 were dissolved in 10% DMA+10% (30% Solutol)+80% physiological saline to prepare a solution. Compound 15 was dissolved in 10% DMA+10% PEG400+80% physiological saline to prepare a solution. The SD rats were intragastrically administered at a dose of 5.0 mg/kg. The time of blood collection was: 15 min, 30 min, 1 h, 2 h, 4 h, 6 h, 8 h and 24 h.
as §2, with “Intravenous” for “Animal administration and sample collection: intragastric”, “intravenous” for “intragastrically”, “1” for “5.0”, “was: 5 min,” for “was:”
The animals were fixed, the tail was heated in a water bath 10 min before each time point, and about 100 μL of blood was collected through the tail vein, and the blood was then placed in an anti-coagulation tube containing EDTA-K2. Blood samples were centrifuged at 8000 rpm for 6 min at 4° C. to obtain plasma samples, which must be prepared within 30 min of blood collection. The plasma samples were stored at −80° C. in a freezer before test.
Take the sample to be tested from the refrigerator (−80° C.), melted at room temperature and vortexed for 5 min. 20 μL of plasma sample was accurately pipetted into a 1.5 mL centrifuge tube; added with 200 μL of internal standard working solution at a concentration of 50 ng/mL and mixed well. The mixture was vortexed for 5 min (12000 rpm) and centrifuge for 5 min (12000 rpm). 50 μL of supernatant was accurately pipetted into 96-well plates pre-filled with 150 μL/well of water; vortexed for 5 min to mix well. The inject volume was 20 μL and LC-MS/MS was performed.
The concentration of the test sample was output by using Analyst 1.6.3 from AB. The mean, standard deviation, coefficient of variation and other parameters were calculated by Microsoft Excel (direct output from Analyst 1.6.3 is not calculated). PK parameters are calculated by using Pharsight Phoenix 6.1 software NCA (Tmax is the median).

[4] = IV 1 mg/kg, read-out: AUCinf iv
[5] = PO 5 mg/kg, read-out: AUCinf PO

T1 sequence (P14902 whole entry, species assumed): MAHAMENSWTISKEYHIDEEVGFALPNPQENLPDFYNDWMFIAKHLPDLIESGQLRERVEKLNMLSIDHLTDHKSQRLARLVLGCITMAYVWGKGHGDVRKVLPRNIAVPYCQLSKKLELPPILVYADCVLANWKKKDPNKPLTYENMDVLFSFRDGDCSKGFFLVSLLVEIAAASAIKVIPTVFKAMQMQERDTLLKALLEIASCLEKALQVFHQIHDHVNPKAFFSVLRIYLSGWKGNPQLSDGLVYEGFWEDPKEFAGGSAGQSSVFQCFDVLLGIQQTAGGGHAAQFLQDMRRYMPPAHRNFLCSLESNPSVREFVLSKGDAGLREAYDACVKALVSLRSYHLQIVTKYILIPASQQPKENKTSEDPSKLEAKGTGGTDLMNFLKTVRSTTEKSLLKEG

IC50 [1]: 19.4 nM
IC50 [2]: 200 nM
Structure (SMILES): O=S1(=O)CCC(Nc2nonc2C(=NO)Nc2ccc(F)c(Br)c2)C1 (single isomer, unassigned) [Compound 15-P1]

IC50 [1]: 119 nM
IC50 [2]: 240 nM
Structure (SMILES): O=S1(=O)CCC(Nc2nonc2C(=NO)Nc2ccc(F)c(Br)c2)C1 (single isomer, unassigned) [Compound 15-P2]

IC50 ([1]; Homo sapiens, HeLa, 48 h): 109 nM
Structure (SMILES): ON=C(Nc1ccc(F)c(Br)c1)c1nonc1NC1CCOCC1 [Compound 1, N-(3-bromo-4-fluorophenyl)-N′-hydroxy-4-((tetrahydro-2H-pyran-4-yl)amino)-1,2,5-oxadiazol-3-formamidine]

IC50 ([1]; Homo sapiens, HeLa, 48 h): 39.7 nM
Cl_obs iv ([3]; IV 1 mg/kg): 32.8 mL/min/kg
Vz_obs iv ([3]; IV 1 mg/kg): 5.02 L/kg
tz1/2 iv ([3]; IV 1 mg/kg): 1.82 h
tZ1/2 PO [3]: 3.81 h
bioavailability ([3]; IV 1 mg/kg, PO 5 mg/kg): 62.2%
AUC(0-inf) [3, 4]: 521 ng·h/mL
Tmax ([3]; PO 5 mg/kg): 15 min
AUC(0-inf) [3, 5]: 1620 ng·h/mL
Structure (SMILES): O=S1(=O)CCC(Nc2nonc2C(=NO)Nc2ccc(F)c(Br)c2)CC1 [Compound 2, N-(3-bromo-4-fluorophenyl)-4-((1,1-dioxotetrahydro-2H-thiopyran-4-yl)amino)-N′-hydroxy-1,2,5-oxadiazol-3-formamidine]

IC50 ([1]; Homo sapiens, HeLa, 48 h): 71 nM
Structure (SMILES): CS(=O)(=O)N1CCC(Nc2nonc2C(=NO)Nc2ccc(F)c(Br)c2)CC1 [Compound 3, N-(3-bromo-4-fluorophenyl)-N′-hydroxy-4-((1-(methylsulfonyl)piperidin-4-yl)amino)-1,2,5-oxadiazol-3-formamidine]

IC50 ([1]; Homo sapiens, HeLa, 48 h): 78.8 nM
Structure (SMILES): NS(=O)(=O)N1CCC(Nc2nonc2C(=NO)Nc2ccc(F)c(Br)c2)CC1 [Compound 4]

IC50 ([1]; Homo sapiens, HeLa, 48 h): 105 nM
Structure (SMILES): ON=C(Nc1ccc(F)c(Br)c1)c1nonc1NC1CC2(COC2)C1 [Compound 12, 4-((2-oxaspiro[3.3]heptan-6-yl)amino)-N-(3-bromo-4-fluorophenyl)-N′-hydroxy-1,2,5-oxadiazol-3-carboxamidine]

IC50 ([1]; Homo sapiens, HeLa, 48 h): 68.6 nM
IC50 [2]: 220 nM
Cl_obs iv ([3]; IV 1 mg/kg): 53.3 mL/min/kg
Vz_obs iv ([3]; IV 1 mg/kg): 9.00 L/kg
tz1/2 iv ([3]; IV 1 mg/kg): 2.00 h
tZ1/2 PO [3]: 1.67 h
bioavailability ([3]; IV 1 mg/kg, PO 5 mg/kg): 36.9%
AUC(0-inf) [3, 4]: 336 ng·h/mL
Tmax ([3]; PO 5 mg/kg): 15 min
AUC(0-inf) [3, 5]: 620 ng·h/mL
Structure (SMILES): O=S1(=O)CC2(CC(Nc3nonc3C(=NO)Nc3ccc(F)c(Br)c3)C2)C1 [Compound 13, N-(3-bromo-4-fluorophenyl)-4-((2,2-dioxo-2-thiaspiro[3.3]heptan-6-yl)amino)-N′-hydroxy-1,2,5-oxadiazol-3-formamidine]

IC50 ([1]; Homo sapiens, HeLa, 48 h): 51.6 nM
IC50 [2]: 220 nM
Cl_obs iv ([3]; IV 1 mg/kg): 45.5 mL/min/kg
Vz_obs iv ([3]; IV 1 mg/kg): 4.03 L/kg
tz1/2 iv ([3]; IV 1 mg/kg): 1.03 h
tZ1/2 PO [3]: 3.40 h
bioavailability ([3]; IV 1 mg/kg, PO 5 mg/kg): 28.1%
AUC(0-inf) [3, 4]: 367 ng·h/mL
Tmax ([3]; PO 5 mg/kg): 60 min
AUC(0-inf) [3, 5]: 516 ng·h/mL
Structure (SMILES): O=S1(=O)CCC(Nc2nonc2C(=NO)Nc2ccc(F)c(Br)c2)C1 (stereo not shown) [Compound 15, N-(3-bromo-4-fluorophenyl)-4-((1,1-dioxo-tetrahydrothiophen-3-yl)amino)-N′-hydroxy-1,2,5-oxadiazol-3-formamidine]

IC50 ([1]; Homo sapiens, HeLa, 48 h): 78.3 nM
IC50 [2]: 170 nM
Structure (SMILES): CS(=O)(=O)N1CC2(CC(Nc3nonc3C(=NO)Nc3ccc(F)c(Br)c3)C2)C1 [Compound 16, N-(3-bromo-4-fluorophenyl)-N′-hydroxy-4-((2-(methylsulfonyl)-2-azaspiro[3.3]heptan-6-yl)amino)-1,2,5-oxadiazol-3-formamidine]

IC50 ([1]; Homo sapiens, HeLa, 48 h): 76 nM
Structure (SMILES): O=S1(=O)CC(Nc2nonc2C(=NO)Nc2ccc(F)c(Br)c2)C1 [Compound 26, N-(3-bromo-4-fluorophenyl)-4-((1,1-dioxothietan-3-yl)amino)-N′-hydroxy-1,2,5-oxadiazol-3-formamidine]
